≈ marks a conversion by molar mass, not a printed value.
conditions: buffer; pH 7.4; 200.0 µM

SMILES | solubility kinetic [µg/mL]
O=C(COC(=O)Cc1ccccc1)NCc1ccc2c(c1)OCO2 | > 49.1
CSC1=C(C#N)C(=O)NC(c2ccc(Cl)cc2)S1 (stereo unspecified) | 11.9 (≈ 40.1 µM)
COC(=O)c1cccc(NC(=O)NC(=O)c2ccccc2Cl)c1 | 0.6 (≈ 1.8 µM)
CC(C)Oc1cccc(C(=O)C2CCCN(C(=O)c3ccsc3)C2)c1 (stereo unspecified) | 44.8 (≈ 125 µM)
CCN(C(=O)COC(=O)c1ccc(SC)cc1OC)C1CCS(=O)(=O)C1 (stereo unspecified) | > 60.2
Cc1cccc(N2CN=C3SCC(=O)N3C2)c1 | > 37.1
COc1ccc(NC(=O)c2cccc(Cl)c2)c[n+]1[O-] | > 41.8
Cc1ccc(OCc2ccc(Br)cc2)c([N+](=O)[O-])n1 | 2.2 (≈ 6.81 µM)
O=C(O)CSc1nc2ccccc2n1-c1ccccc1 | > 42.6
O=C(CCNc1cccc(F)c1)c1cc2ccccc2o1 | < 0.6
Cc1ccc(-n2c3nc(=O)n(C)c(=O)c-3cc3ccccc32)cc1 | 12.3 (≈ 38.8 µM)
CCC(C)NC(=O)c1cc(-c2ccc3c(c2)OCO3)on1 (stereo unspecified) | 3 (≈ 10.4 µM)
Cc1[nH]c(=O)[nH]c(=O)c1S(=O)(=O)N1CCCCC1 | > 41
O=C(NC12CC3CC(CC(C3)C1)C2)N1CCN(C2CCCCC2)CC1 | 42.4 (≈ 123 µM)
O=C(Cc1ccc(Cl)cc1Cl)Nc1ccncc1Cl | 12.4 (≈ 39.3 µM)
COc1ccc(/C=C/C(=O)NC(=S)Nc2ccccn2)cc1 | 1.8 (≈ 5.74 µM)
CS(=O)(=O)N1CCN(c2nc3ccc(Cl)cc3s2)CC1 | < 0.2
CC(C)(C#CC(O)(c1ccccc1)c1ccccc1)N1CCCC1.Cl | > 53.4
FC(F)(F)c1cnc2c(c1)[nH]c(=S)n2-c1ccc(Cl)cc1 | 3 (≈ 9.1 µM)
S=c1nc(Cc2ccccc2)[nH]c2ccccc12 | 2.4 (≈ 9.51 µM)
COC(=O)c1cc(C(=O)CC(C)C)c[nH]1 | > 31.4
COc1cc(C(=O)Nc2ccc(C)cc2)c2ccccc2n1 | < 0.3
CSc1nsc(NC(=O)OCc2ccc(Cl)cc2)n1 | 8.4 (≈ 26.6 µM)
C=CCc1cccc(CNc2c(C)cc(C)cc2C)c1O | 4.7 (≈ 16.7 µM)
Cc1cccc(NC(=O)COC(=O)c2ccccn2)c1 | 34.9 (≈ 129 µM)

SMILES | solubility kinetic [µg/mL]
O=C(Cc1cccs1)N1CCN=C1SCc1ccc(F)cc1 | 26 (≈ 77.7 µM)
O=C(c1cc2ccccc2s1)N1CCOCC1 | > 37.1
Cc1cccc(NC(=S)NC(=O)c2ccco2)c1C | 36.7 (≈ 134 µM)
COc1ccccc1NC(=S)NC(=O)Cc1ccccc1 | 0.5 (≈ 1.66 µM)
Cc1cc(C)cc(N2CCCn3c2nc2c3c(=O)[nH]c(=O)n2C)c1 | 3.3 (≈ 10.1 µM)
COc1ccccc1C1CCN(C(=O)c2ccco2)CC1 | 34 (≈ 119 µM)
O=C1CN(C(=O)CNCc2ccccc2)c2ccccc2N1 | 33.9 (≈ 115 µM)
COc1ccccc1C(=O)NCCC(=O)NC1=NCCS1 | > 46.1
CCN(CC)C(=O)CSC(Nc1cccc(F)c1)=C(C#N)C#N | > 49.9
C=C(C)Cc1c(C)c(C#N)c2[nH]c3ccccc3n2c1=O | 2.9 (≈ 10.5 µM)
COC(=O)CSc1nc(Cc2ccccc2)nc2ccccc12 | 10.7 (≈ 33 µM)
CSc1ncccc1C(=O)NCCc1ccccc1F | > 43.6
CSc1ccccc1C(=O)N(C)Cc1ccccc1 | > 40.7
O=C(CCCN1CCC(O)(c2ccc(Cl)cc2)CC1)c1ccc(F)cc1 | 23.5 (≈ 62.5 µM)
Cc1ccnc(NCc2ccc(Cl)cc2)c1 | 3.7 (≈ 15.9 µM)
COc1ccc(C(=O)Nn2c(C)nc3ccccc3c2=O)cc1 | > 46.4
CC1CCCN(Cc2c(O)ccc3c4c(c(=O)oc23)CCCC4)C1 (stereo unspecified) | 44 (≈ 134 µM)
CN(c1nc2ccccc2[nH]c1=O)C1CCCCC1 | 2.9 (≈ 11.3 µM)
CCC(=O)N1CCc2nc(-c3ccccc3)sc2C1 | > 40.9
CCC(=O)N/C(N)=N/c1nc(C)c2cc(C)c(C)cc2n1 | 11.6 (≈ 40.7 µM)
O=C(Nc1ccc2[nH]c(=O)[nH]c2c1)c1ccc(Br)o1 | 8.3 (≈ 25.8 µM)
Cc1ccnc(NS(=O)(=O)c2ccccc2)c1 | 31.3 (≈ 126 µM)
Cc1ccc(C(=O)N=c2sccn2C)o1 | 32.9 (≈ 148 µM)
CN(c1ncnc(N)c1[N+](=O)[O-])C1CCCCC1 | > 37.7
COc1ccc(-n2c(CCC(=O)O)ccc2-c2ccccc2)cc1 | > 48.2

SMILES | solubility kinetic [µg/mL]
Cc1cccc(OCC2CCCN(Cc3nc(C4CC4)no3)C2)c1 (stereo unspecified) | 12.8 (≈ 39.1 µM)
O=C(Oc1ccc(C(=S)N2CCOCC2)cc1)c1ccccc1[N+](=O)[O-] | 16.8 (≈ 45.1 µM)
O=C(NCCC(=O)N1CCCCC1)c1ccccc1Cl | > 44.2
CCOC(=O)C1CCCN(Cc2cccc(Oc3ccccc3)c2)C1 (stereo unspecified) | 3.1 (≈ 9.13 µM)
O=C(O)c1cc(S(=O)(=O)NCCN2CCNC2=O)ccc1O | > 49.4
Cc1cc2oc(=O)cc(Cn3ccnc3)c2cc1Cl | 34.3 (≈ 125 µM)
CC1=C(C#N)C2(O)C(=O)c3ccccc3C2(O)N1 (stereo unspecified) | > 36.3
C=CCn1c(C)cc(C(=O)COc2ccc(N(C)S(=O)(=O)c3ccc(NC(C)=O)cc3)cc2)c1C | 9.3 (≈ 18.8 µM)
O=C(CN1CCCC1)Nc1c(Cl)cccc1Cl | 36.9 (≈ 135 µM)
CCOc1ccc(S(=O)(=O)/N=C(/Nc2ccc(S(N)(=O)=O)cc2)c2ccccc2)cc1 | 2.2 (≈ 4.79 µM)
O=S(=O)(NC1CC2CCC1C2)c1ccc(Cl)cc1 (stereo unspecified) | 38.4 (≈ 134 µM)
CCC(C)NC(=O)c1ccc(CSCc2ccccc2Cl)o1 (stereo unspecified) | 30.7 (≈ 90.9 µM)
COc1cccc(-c2c(C#N)c(N)nc3c2c(=O)nc2sccn23)c1 | 23 (≈ 65.8 µM)
O=C(OCC(=O)N1CCc2ccccc21)c1nc(Cl)ccc1Cl | 23.3 (≈ 66.3 µM)
O=C1CSC(c2ccc([N+](=O)[O-])cc2)N1c1ccccc1F (stereo unspecified) | > 47.7
CCC1(C)NC(=O)N(CC(=O)Nc2cc(C)on2)C1=O (stereo unspecified) | > 42
O=C(Nc1ccccc1)c1ccccc1NC(=O)[C@H]1CCCC[C@H]1C(=O)O | > 55
CCCN1C(=O)c2ccc(C(=O)Nc3cc(C)ccc3O)cc2C1=O | 0.9 (≈ 2.66 µM)
CCNc1nc(SCC(=O)OC)nc(N(C)C)n1 | > 40.7
CS(=O)(=O)N(CC(=O)N1CCOCC1)c1cccc([N+](=O)[O-])c1 | > 51.5
Cc1ccccc1/C=C/C(=O)N1CCOCC1 | > 34.7
CCOC(=O)c1[nH]cnc1C(=O)Nc1ccccc1 | 11.4 (≈ 44 µM)
O=C(Nc1ccc(F)cc1)c1cccc2ccccc12 | < 0.6
Cc1nc2ccc([N+](=O)[O-])cc2nc1C | > 30.5
Cc1ccc(-n2c(C)nnc2SC(C)C(=O)N2CCCC2)cc1 (stereo unspecified) | > 49.6

SMILES | solubility kinetic [µg/mL]
O=C(CN1C(=O)NC2(CCCCC2)C1=O)Nc1ccc(N2CCCCC2)cc1 | 10.9 (≈ 28.3 µM)
Cn1c(CC(=O)NNC(=O)c2ccccc2F)nc2ccccc21 | > 48.9
Cc1ccc2nc(-c3ccc(N)cc3)sc2c1 | 1.1 (≈ 4.58 µM)
CSc1ccc(S(=O)(=O)N2CCC(C(=O)NC3CC3)CC2)cc1 | 36 (≈ 102 µM)
CC(C)CN=CC1=C(O)c2ccccc2C1=O | 29.5 (≈ 129 µM)
CNC(=S)N(CCCn1ccnc1)Cc1c(F)cccc1Cl | 49 (≈ 144 µM)
Cc1ccc(CN2C(=O)CSC2c2ccc(F)cc2)cc1 (stereo unspecified) | 16.8 (≈ 55.7 µM)
CN(CCOc1ccccc1)CC(=O)Nc1cccc(C#N)c1 | 43 (≈ 139 µM)
CCCCOc1ccc(C(=O)NCC(=O)NC2CCCCC2)cc1 | 4.7 (≈ 14.1 µM)
COc1ccc(OC)c(C(=O)/C=C/c2cccnc2)c1 | > 40.4
CCOc1ccc(C(=O)N2CCN(c3ccccc3)CC2)cc1 | 46.5 (≈ 150 µM)
CCCCn1c(=O)[nH]c(=O)c2c1nc(-c1cccc(OC)c1)n2C | 3.1 (≈ 9.44 µM)
O=C(c1cccc(Oc2ccccc2)c1)N1CCOCC1 | > 42.5
C[C@H](NC(=O)Cc1cccc2ccccc12)C(=O)N1CCOCC1 | > 49
CN(C)S(=O)(=O)c1ccc(N2CCCC2)c(C(=O)Nc2nccs2)c1 | 51.6 (≈ 136 µM)
Cc1ccc(CN(Cc2ccccc2)C(=S)Nc2ccccc2C)o1 | 1.5 (≈ 4.28 µM)
CCN(Cc1ccncc1)C(=O)CCc1ccccc1 | 33.4 (≈ 124 µM)
CC(=O)N(c1ccc(Cl)cc1)c1cn(C(C)=O)c2ccccc12 | > 49
Fc1ccc(CNC(=S)Nc2ccccc2F)cc1 | > 41.7
COc1ccc(NC(=O)C2CC(c3ccccc3O)=NO2)cc1OC (stereo unspecified) | 1.5 (≈ 4.38 µM)
COc1ccc(NC(=O)CS(=O)(=O)c2ccc(C)cc2)c(OC)c1 | > 52.4
CCOC(=O)c1cnc(-c2ccccc2)nc1C(F)(F)F | < 0.3
O=C(Nc1cccc2c1CCCC2)c1ccc(F)cc1 | 2.2 (≈ 8.17 µM)
O=S(=O)(NCc1ccco1)c1ccc2ccccc2c1 | 11.3 (≈ 39.3 µM)
CN(Cc1nc(-c2ccc(Cl)cc2)no1)C(=O)c1ccco1 | 47.5 (≈ 149 µM)

SMILES | solubility kinetic [µg/mL]
CCc1ccc(S(=O)(=O)NCc2csc(C)n2)cc1 | > 44.5
COc1ccc(NC(=S)N2CCN(Cc3ccc(C)cc3)CC2)cc1 | 0.4 (≈ 1.13 µM)
CCOc1ccccc1NC(=O)CCn1ccnc1 | 37 (≈ 143 µM)
C[C@@H](C(=O)Nc1ccc(SC(F)F)cc1)N1C(=O)C2CCCCC2C1=O (stereo partly specified) | 52.5 (≈ 137 µM)
Cc1ccn2c(NC(=O)c3ccccc3)c(-c3ccccc3)nc2c1 | 2 (≈ 6.11 µM)
O=C(COC(=O)Cc1ccc(Br)cc1)NCc1cccs1 | 11.8 (≈ 32 µM)
S=C1NCN(Cc2ccco2)CN1c1cccc2ccccc12 | > 48.5
Nc1ncnc(Nc2ccccc2Cl)n1 | 32.8 (≈ 148 µM)
Cc1ccc2c(c1)N(Cc1ccc([N+](=O)[O-])cc1)C=NS2(=O)=O | 34.9 (≈ 105 µM)
Cc1ccc(OCC(=O)O/N=C(\N)c2ccncc2)cc1C | 18.6 (≈ 62.1 µM)
O=C(NCc1ccccc1)NC(=O)c1ccc(Cl)cc1 | < 0.3
O=C(O)CC(CC(=O)Nc1ccc(-c2ccccc2)cc1)c1ccccc1 (stereo unspecified) | > 53.9
ON=C1c2ccccc2-c2ccccc21 | 1.3 (≈ 6.66 µM)
N#CCOC(=O)C1c2ccccc2Oc2ccccc21 | 35.2 (≈ 133 µM)
COc1ccccc1N1CCNCC1.Cl | 28.2
COc1cccc(C(=O)Nc2ccc3c(c2)n(C)c(=O)n3C)c1 | > 46.7
Cc1c(CNCCc2ccccc2)c(C(=O)O)c(C)n1-c1ccccc1 | > 52.3
COCCN1C(=O)C(=O)/C(=C(/O)c2ccc(C)cc2)C1c1ccccn1 (stereo unspecified) | > 52.9
COc1ccc(CN2CCOCCOCCOCCOCCOCC2)cc1 | > 57.5
CCOC(=O)CN1C(=O)C(=O)N(Cc2ccccc2)C1=O | > 43.5
Cc1ccc(NC(=O)NC(=O)c2ccccc2)cc1F | < 0.3

Source: PubChem BioAssay AID1996
